Assay results reported in publication PMC8591604, “Targeting Oncogenic Src Homology 2 Domain-Containing Phosphatase 2 (SHP2) by Inhibiting Its Protein–Protein Interactions” (Journal of Medicinal Chemistry, 2021).
Read-outs that look alike come from different tables or passages of the source. Where a SMILES comes first, the peptide text is derived from it. [ ]: non-standard residue; d: D form. The star is where a group is joined. 5FAM = O=C1OC2(c3ccc(O)cc3Oc3cc(O)ccc32)c2ccc(C(=O)*)cc21; pY = N[C@@H](Cc1ccc(OP(=O)(O)O)cc1)C(=O)O

Columns and labels:
[1] = Peptide stability in human serum (HPLC); type: in vitro ADME; details: in 3 h, positive control
Procedure: (§1) The peptides were dissolved in DMSO (5 mg/mL). In Eppendorf tubes, 1 mL of HEPES buffer (25 mM, pH 7.6) was temperature equilibrated at 37 °C before the addition of 250 μL of human serum and 20 μL of a peptide solution; the reaction was followed for 24 h. At fixed intervals, 100 μL of the solution was withdrawn and added to 200 μL of absolute ethanol. These samples were kept on ice for 15 min and then centrifuged at 13000 rpm for 5 min; the supernatant solutions were analyzed by HPLC and HPLC-MS with a 20% to 60% B gradient in 20 min to follow the reaction. In parallel, samples containing peptide, buffer, and ethanol only were analyzed. A degradation resistance test was also conducted in DMEM (Dulbecco’s modified Eagle’s medium). The experimental conditions are similar to those described above; the reaction was followed for 72 h. The enzymatic degradation resistance tests were followed by HPLC using a 5% to 50% B gradient over 20 min.

N-SH2 domain of SHP2 [2] = molecular target: T1, N-SH2 domain of SHP2 (Homo sapiens, UniProt Q06124); assay: Fluorescence anisotropy direct binding assay; details: for standard free energy of binding: assuming a 1 M standard state; for Kd: direct titration of labeled peptide
T1 construct: constructs of the N-SH2 (residues 2–111), C-SH2 (residues 109–217), and PTP (residues 212–528) domains; made in house; host or cells: Escherichia coli (DE3) Rosetta2
T1 sequence (Q06124 2-111): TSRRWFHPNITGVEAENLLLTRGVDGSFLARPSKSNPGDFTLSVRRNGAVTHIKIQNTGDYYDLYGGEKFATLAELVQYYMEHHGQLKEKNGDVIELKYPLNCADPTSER
Procedure: Anisotropy measurements were carried out using a Horiba Fluoromax 4 spectrofluorimeter. For the binding assays, the requested peptide amount (1 or 0.1 nM) was diluted in a buffer (10 mM HEPES, 150 mM NaCl, 1 mM EDTA, and 1 mM TCEP, fluorescence buffer henceforth) and its anisotropy signal was recorded. The peptide was then titrated with increasing protein amounts, until the anisotropy signal reached a plateau at its maximum value, or up to a protein concentration at which protein aggregation and consequent light scattering affected the anisotropy values (usually >1 μM). The measurements of CF-labeled peptides were carried out using an excitation wavelength of 470 nm and collecting the anisotropy values at an emission wavelength of 520 nm. A 495 nm emission filter was used. […] Between two and six replicates were performed (the specific numbers are indicated in the figures and in the table reporting the binding experiments).
Analysis of binding curves
fractions correspond to the population of the two states.
𝑟 = 𝑥𝐵𝑟𝑚𝑎𝑥 + (1 − 𝑥𝐵)𝑟0 (1)
Here, r, r0 and rmax are the anisotropy values at a given protein concentration, in the absence of protein and when the peptide is completely bound, respectively, and 𝑥𝐵 is the molar fraction of bound peptide. This last quantity, therefore, can be derived from the anisotropy values as follows:
Kd values were obtained fitting the data with the following equation, 2 which avoids the need for the commonly used (but often unjustified) approximation of the concentration of unbound protein with
Here, [P]T and [L]T are the total protein and ligand concentrations. When allowed by the experimental conditions (i.e. when [𝐿]𝑇 ≪ 𝐾𝑑), this equation was simplified by assuming [𝑃]𝑇 ≅
(§2) The affinity of unlabeled peptides was determined by competition experiments, in which a sample with fixed total protein and fluorescently labeled peptide concentrations ([ 𝑃]T and [𝐿]T) was titrated with the unlabeled peptide, causing displacement of the flu orescent peptide and a decrease in
half of the bound fluorescent analog) was determined, interpolating the displacement curve using a phenomenological Hill equation:3
where [I]T is the total concentration of the peptide causing the displacement, and rfin is the anisotropy corresponding to total displacement, while in this case r0 is the starting anisotropy, in the absence of displacing peptide.
Successively, the dissociation constant of the unlabeled peptide (𝐾𝑑𝑢) was calculated from the know values of EC50, Kd, [𝑃]𝑇 and [𝐿]𝑇, as described here below.
In the system where protein (P), ligand (L ) and a competitive inhibitor (I) are present, both L and I can form complexes with P (PL and PI, respectively). The following dissociation constants can be defined for the two binding equilibria:

SHP2Δ104 = molecular target: T2, SHP2Δ104 (Homo sapiens, UniProt Q06124); assay: Dephosphorylation of phosphopeptides, malachite green phosphatase assay; type: biochemical; details: 100 μM phosphopeptide
T2 construct: the isolated PTP domain preceded by the C-SH2 domain (residues 105–528); made in house; host or cells: Escherichia coli (DE3) Rosetta2
T2 sequence (Q06124 105-528): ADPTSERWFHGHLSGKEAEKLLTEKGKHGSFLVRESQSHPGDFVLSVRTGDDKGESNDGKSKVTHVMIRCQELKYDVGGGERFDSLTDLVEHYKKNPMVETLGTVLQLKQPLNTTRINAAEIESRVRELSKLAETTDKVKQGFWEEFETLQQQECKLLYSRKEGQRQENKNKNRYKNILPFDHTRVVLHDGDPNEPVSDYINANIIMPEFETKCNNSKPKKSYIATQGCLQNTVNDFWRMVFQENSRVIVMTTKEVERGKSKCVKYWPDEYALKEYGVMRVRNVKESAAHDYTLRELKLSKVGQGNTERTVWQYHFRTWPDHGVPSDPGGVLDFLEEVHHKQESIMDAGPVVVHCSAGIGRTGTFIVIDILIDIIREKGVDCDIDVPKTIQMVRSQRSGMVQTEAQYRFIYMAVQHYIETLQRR
Procedure: The ability of SHP2 to dephosphorylate the phosphopeptides was evaluated through a malachite green phosphatase assay (PTP assay kit 1, Millipore). The BTAM peptide and the following monophosphorylated peptides derived from known SHP2 substrates were used for comparison: DKQVE-pY-LDLDL (GAB1Y657), EEENI-pY-SVPHD (p190A/RhoGAPY1105), and VDADE-pY-LIPQQ (EGFRY1016) (Primm). SHP2Δ104 (2.4 pmol) was incubated with each phosphopeptide at 100 μM (total volume of 25 μL) for different times. The reaction was stopped by adding 100 μL of a malachite green solution. After 15 min, the absorbance was read at 655 nm, using a microplate reader, and compared with a phosphate standard curve to determine the release of phosphate. Data obtained in the linear region of the curve were normalized to the reaction time (1 min). Each experiment was performed in duplicate.

N-SH2 domain [3] = molecular target: N-SH2 domain; parameters: method as in ref 48 (a number printed in a supplementary file, which may have a reference list of its own: not looked up in the article's list); details: Radioactively labeled peptide; cited from earlier work
N-SH2 domain [4] = molecular target: N-SH2 domain; parameters: method as in ref 19 (a number printed in a supplementary file, which may have a reference list of its own: not looked up in the article's list); details: Isothermal titration calorimetry; cited from earlier work
N-SH2 domain of SHP2 [5] = molecular target: T1, N-SH2 domain of SHP2; assay: Fluorescence anisotropy displacement assay; type: binding; details: 1.0 nM CF-P9, 40 nM N-SH2; compared with P9
Procedure: The displacement assays were carried out with the same experimental settings. In this case, the labeled peptide–protein complex was titrated with increasing amounts of the unlabeled peptide, following the decrease in anisotropy. Measurements were carried out at the same CF-peptide concentration used for the corresponding binding experiments. With regard to the protein concentration, a compromise between two requirements is needed.[90] […] Between three and five replicates were performed (the specific numbers are indicated in the figures reporting the binding experiments).
Here, [P]T and [L]T are the total protein and ligand concentrations. […]
as §2
half of the bound fluorescent analog) was determined, interpolating the displacement curve using a phenomenological Hill equation:3 […]
Successively, the dissociation constant of the unlabeled peptide (𝐾𝑑𝑢) was calculated from the know values of EC50, Kd, [𝑃]𝑇 and [𝐿]𝑇, as described here below. […]
In this way, 𝐾𝑑𝑢 is expressed as a function of the known quantities EC50, Kd, [𝑃]T and [𝐿]T, without

[6] = Peptide stability in DMEM; type: in vitro ADME; details: 3 days; data not shown
Procedure: as §1

Q: Which “degradation in human serum” value [1] does the source give for `CC[C@H](C)[C@H](NC(=O)[C@H](C)NC(=O)[C@H](CCCCN)NC(=O)CNC(=O)[C@H](Cc1ccc(O)cc1)NC(=O)[C@H](Cc1ccc(O)cc1)NC(=O)[C@H](CCCCN)NC(=O)[C@H](Cc1ccccc1)NC(=O)[C@@H](N)Cc1c[nH]c2ccccc12)C(=O)N[C@@H](Cc1ccc(O)cc1)C(=O)O` [XP] (H-WFKYYGKAIY-OH) here?
A: Its value is “totally degraded”.

Q: Which “affinity, times lower than the phosphorylated peptide” value (N-SH2 domain of SHP2 [2]; CF-P9Y0 vs CF-P9) does the source give for `CC[C@H](C)[C@H](NC(=O)[C@H](Cc1ccc(O)cc1)NC(=O)[C@H](CC(N)=O)NC(=O)[C@H](CC(C)C)NC(=O)CNC(=O)c1ccc2c(c1)C(=O)OC21c2ccc(O)cc2Oc2cc(O)ccc21)C(=O)N[C@@H](CC(=O)O)C(=O)N[C@@H](CC(C)C)C(=O)N[C@@H](CC(=O)O)C(=O)N[C@@H](CC(C)C)C(N)=O` [CF-P9Y0, CF-GLN- Y -IDLDL] (5FAM-GLNYIDLDL-NH2) here?
A: Its value is “approximately 100 times”.

Q: And the “standard free energy of binding” value (N-SH2 domain of SHP2 [2])?
A: The value was -7.07 ± 0.048 kcal/mol.

Q: What about the Kd (N-SH2 domain of SHP2 [2]) of the same compound?
A: The Kd was 6600 ± 600 nM.

Q: Which “dephosphorylation by SHP2Δ104” value (SHP2Δ104) does the source give for `CC[C@H](C)[C@H](NC(=O)[C@H](Cc1ccc(OP(=O)(O)O)cc1)NC(=O)[C@H](CC(N)=O)NC(=O)[C@H](CC(C)C)NC(C)=O)C(=O)N[C@@H](CC(=O)O)C(=O)N[C@@H](CC(C)C)C(=O)N[C@@H](CC(=O)O)C(=O)N[C@@H](Cc1c[nH]c2ccccc12)C(N)=O` [P8W5, LN-pY -IDLDW] here?
A: Its value is “dephosphorylation was indeed observed”.

Q: What does the source list for SLN-pY-IDLDLVKD [IRS-1 pY1172]?
A: Kd (N-SH2 domain [3]): 1000 to 10000 nM; Kd (N-SH2 domain [4]): 51 nM

Q: For `CC[C@H](C)[C@H](NC(=O)[C@H](Cc1ccc(OP(=O)(O)O)cc1)NC(=O)[C@H](CC(N)=O)NC(=O)[C@H](CC(C)C)NC(=O)CNC(=O)c1ccc2c(c1)C(=O)OC21c2ccc(O)cc2Oc2cc(O)ccc21)C(=O)N[C@@H](CC(=O)O)C(=O)N[C@@H](CC(C)C)C(=O)N[C@@H](CC(=O)O)C(=O)N[C@@H](CC(C)C)C(N)=O` [CF-P9, CF-GLN-pY -IDLDL] (5FAM-GLN[pY]IDLDL-NH2), which “standard free energy of binding” value (N-SH2 domain of SHP2 [2]) is on record?
A: Its value is -9.94 ± 0.024 kcal/mol.

Q: What about the Kd (N-SH2 domain of SHP2 [2]) of the same compound?
A: The Kd was 53 ± 2 nM.

Q: For N-pY -IDLDL [P7], which “effect of shortening the sequence on affinity (displacement curves)” value (N-SH2 domain of SHP2 [5]) is on record?
A: Its value is “drastic perturbation of the complex stability”.

Q: What does the source list for `CC[C@H](C)[C@H](NC(=O)[C@H](Cc1ccc(OP(=O)(O)O)cc1)NC(=O)[C@H](CC(N)=O)NC(=O)[C@H](CC(C)C)NC(C)=O)C(=O)N[C@@H](CC(=O)O)C(=O)N[C@@H](CC(C)C)C(=O)N[C@@H](CC(=O)O)C(=O)N[C@@H](CC(C)C)C(N)=O` [P8, LN-pY -IDLDL] (Ac-LN[pY]IDLDL-NH2)?
A: effect of shortening the sequence on affinity (displacement curves) (N-SH2 domain of SHP2 [5]): No significant loss of affinity; dephosphorylation by SHP2Δ104 (SHP2Δ104): dephosphorylation was indeed observed

Q: For `CC[C@H](C)[C@H](NC(=O)[C@H](Cc1ccc(C(F)(F)P(=O)(O)O)cc1)NC(=O)[C@H](CC(N)=O)NC(=O)[C@H](CC(C)C)NC(=O)CNC(C)=O)C(=O)N[C@@H](CC(=O)O)C(=O)N[C@@H](CC(C)C)C(=O)N[C@@H](CC(=O)O)C(=O)N[C@@H](Cc1c[nH]c2ccccc12)C(N)=O` [OP, GLN- F2Pmp-IDLDW], which “stability in DMEM” value [6] is on record?
A: The value was “stable”.
